{"source": "patent EP4803080A1", "about": "“METHOD FOR TREATING LEUKEMIA” (Shenzhen TargetRx Co., Ltd., priority 2023, dated 2025)", "key": {"[1]": {"test": "Tissue distribution study using quantitative whole-body autoradiography (QWBA)", "assay_type": "in vivo, Long-Evans rats and Sprague-Dawley rats", "conditions": "single oral 50 mg/100 µCi/kg", "description": "This test utilized a total of 8 male Long Evans (LE) rats, randomly designated as Gt1M01 to Gt1M08; and 4 Sprague-Dawley (SD) rats, with an equal number of males and females, randomly designated as Gt2M01 to Gt2M02 and Gt2F01 to Gt2F02. Each rat received a single oral dose of 50 mg/100 µCi/kg of [^14C]-Compound A via gavage. SD rats were euthanized at 4 hours and 72 hours post-dose (with the 72-hour rats serving as backups); LE rats were euthanized at 0.5 hours, 4 hours, 24 hours, 72 hours, 168 hours, 336 hours, 504 hours, and 840 hours post-dose (with the 504-hour and 840-hour rats serving as backups). According to the rat sequence numbers, one male and one female SD rat and one male LE rat were transferred to an induction chamber, euthanized with an overdose of carbon dioxide, and about 4 mL of whole blood was collected via cardiac puncture. Immediately after blood collection, the carcasses were immersed in a dry ice-hexane bath for freezing and fixation.\nPlasma samples were obtained by low-temperature centrifugation of whole blood. After homogenization, aliquots of each plasma sample were mixed directly with scintillation fluid, and the radioactivity was measured using a liquid scintillation counter (LSC). Frozen carcasses were sectioned, dried, and exposed/developed to determine total radioactivity in tissues/regions (including gastrointestinal contents). Pharmacokinetic parameters for total radioactivity in plasma and tissues were calculated using a non-compartmental model with WinNonLin software (version 8.3, Certara). After development of sections at each time point, 46 tissues/regions (including gastrointestinal contents) were analyzed for LE rats, and 45 tissues/regions (including gastrointestinal contents) were analyzed for SD rats. The radioactivity concentrations in unanalyzed regions were all lower than the lowest concentration in the analyzed tissues or regions."}, "[2]": {"test_system": "Ba/F3 BCR-ABL1 Q252H/T315I", "test": "Cell growth inhibition activity test, single agents and combinations (CellTiter-Glo, Chou-Talalay)", "assay_type": "cell-based, mouse", "conditions": "for IC50: Mus musculus, BaF3, 72 h", "description": "(§1) A series of cell lines expressing BCR-ABL1 single mutations and compound mutations were constructed based on the Ba/F3 mouse pro-B cell line.\n(§2) This assay utilized the CellTiter-Glo (CTG) kit provided by Promega, which is a homogeneous method for cell viability detection, measuring the viability of cultured cells by quantifying ATP. Cells were seeded in 96-well plates and treated with different concentrations of test substances. […] At the end of the treatment, CTG reagent (CellTiter-Glo kit) was added according to the manufacturer's instructions to detect cell viability values. Plates were read on a microplate reader (Biotek cytation 3.0). IC50 values were calculated using GraphPad Prism 7.0 software."}, "Ba/F3 BCR-ABL1 T315M": {"test_system": "Ba/F3 BCR-ABL1 T315M", "test": "Cell growth inhibition activity test, single agents and combinations (CellTiter-Glo, Chou-Talalay)", "assay_type": "cell-based, mouse", "description": "as §1, §2"}, "[3]": {"test_system": "Ba/F3 BCR-ABL1 Y253H/T315I", "test": "Cell growth inhibition activity test, single agents and combinations (CellTiter-Glo, Chou-Talalay)", "assay_type": "cell-based, mouse", "conditions": "Mus musculus; for IC90: Fig. 3", "description": "as §1, §2"}, "[4]": {"test_system": "Ba/F3 BCR-ABL1 E255V/T315I", "test": "Cell growth inhibition activity test, single agents and combinations (CellTiter-Glo, Chou-Talalay)", "assay_type": "cell-based", "conditions": "Mus musculus, BaF3, 72 h", "description": "as §1, §2"}, "[5]": {"conditions": "clinical dose of 45 mg QD; cited from earlier work"}}, "note": "Read-outs that look alike come from different tables or passages of the source.", "data": [{"smiles": "O=C(Nc1ccc(OC(F)(F)Cl)cc1)c1cnc(N2CC[C@@H](F)C2)c(-c2cnccn2)c1", "note": "[[14C]-Compound A]", "values": [{"measurement": "Total Radioactivity, Plasma", "setting": "[1]; Female SD rats, 4 hrs", "value": 15320, "unit": "ng Eq./g"}, {"measurement": "Total Radioactivity, Whole brain", "setting": "[1]; Female SD rats, 4 hrs", "value": 9800, "unit": "ng Eq./g"}, {"measurement": "Total Radioactivity, Plasma", "setting": "[1]; Male LE rats, 0.5 hrs", "value": 7131, "unit": "ng Eq./g"}, {"measurement": "Total Radioactivity, Whole brain", "setting": "[1]; Male LE rats, 0.5 hrs", "value": 4885, "unit": "ng Eq./g"}, {"measurement": "Total Radioactivity, Plasma", "setting": "[1]; Male LE rats, 4 hrs", "value": 11981, "unit": "ng Eq./g"}, {"measurement": "Total Radioactivity, Whole brain", "setting": "[1]; Male LE rats, 4 hrs", "value": 6950, "unit": "ng Eq./g"}, {"measurement": "Total Radioactivity, Plasma", "setting": "[1]; Male SD rats, 4 hrs", "value": 10656, "unit": "ng Eq./g"}, {"measurement": "Total Radioactivity, Whole brain", "setting": "[1]; Male SD rats, 4 hrs", "value": 6400, "unit": "ng Eq./g"}]}, {"smiles": "COc1cc(Nc2c(C#N)cnc3cc(OCCCN4CCN(C)CC4)c(OC)cc23)c(Cl)cc1Cl", "note": "[bosutinib]", "values": [{"measurement": "IC50", "setting": "[2]", "value": "3130 ± 9.9", "unit": "nM"}, {"measurement": "IC50", "setting": "Ba/F3 BCR-ABL1 T315M; Mus musculus, BaF3, 72 h", "value": "3970 ± 151", "unit": "nM"}, {"measurement": "IC50", "setting": "[3]; BaF3, 72 h", "value": "3715 ± 9.9", "unit": "nM"}, {"measurement": "IC50", "setting": "[4]", "value": "3920 ± 1380", "unit": "nM"}]}, {"smiles": "Cc1ncc(NC(=O)c2ccc(CN3CCN(C)CC3)c(C(F)(F)F)c2)cc1Nc1nccc(-c2cccnc2)n1", "note": "[flumatinib]", "values": [{"measurement": "IC50", "setting": "[3]; BaF3, 72 h, single agent, Y253H/T315I, 72 hours, read-out: IC50", "value": "8420 ± 245", "unit": "nM"}]}, {"smiles": "Cc1ccc(C(=O)Nc2ccc(CN3CCN(C)CC3)c(C(F)(F)F)c2)cc1C#Cc1cnc2[nH]ncc2c1", "note": "[olverembatinib]", "values": [{"measurement": "IC50", "setting": "[2]", "value": "7.7 ± 0.01", "unit": "nM"}, {"measurement": "IC50", "setting": "[3]; BaF3, 72 h, read-out: IC50^I1", "value": 36.9, "unit": "nM"}, {"measurement": "IC50", "setting": "[3]; BaF3, read-out: IC50^I2", "value": 5.44, "unit": "nM"}, {"measurement": "IC50", "setting": "[4]", "value": "25.8 ± 2.9", "unit": "nM"}]}, {"smiles": "Cc1ccc(C(=O)Nc2ccc(CN3CCN(C)CC3)c(C(F)(F)F)c2)cc1C#Cc1cnc2cccnn12", "note": "[ponatinib]", "values": [{"measurement": "inhibition of cell viability", "setting": "[2]; single-agent ponatinib at 60 nM and 48 nM, Fig. 5", "value": "could be inhibited"}, {"measurement": "anti-proliferative effect", "setting": "Ba/F3 BCR-ABL1 T315M; single-agent ponatinib, Fig. 6", "value": "no anti-proliferative effect"}, {"measurement": "IC90", "setting": "[3]; BaF3, read-out: IC90 value of ponatinib, ponatinib in combination with asciminib", "value": 165, "unit": "nM"}, {"measurement": "IC90", "setting": "[3]; BaF3, read-out: IC90 value of ponatinib, ponatinib in combination with compound A", "value": 60.9, "unit": "nM"}, {"measurement": "minimum plasma concentration at steady state (Cssmin)", "setting": "[5]", "value": 64.3, "unit": "nM"}]}]}
